What was measured:
PDGFRβ kinase = PDGFRβ kinase (Homo sapiens (Human), UniProt P09619); test: PDGFRβ kinase assay (radiometric); assay type: biochemical
Summary of the method: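 Radiometric assay: recombinant PDGFRβ with poly(Glu4:Tyr1) in MOPS pH 7.0 buffer containing Mg2+/Mn2+, 10 μM ATP plus [33P]-ATP, and compound at 4% DMSO final. Incubated 60 min at 30° C, stopped with phosphoric acid, filter-captured and scintillation-counted. IC50 from curve fitting.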

[1] = test system: osteoclast precursors (osteoclast differentiation); test: Osteoclast tartrate-resistant acid phosphatase assay; assay type: cell-based; conditions: 168 h, at 1 μM treatment, 7 days, RANKL and M-CSF, read-out: inhibition activity against osteoclast differentiation
Method: A serial dilution of test compound was dispensed into a 96-well black clear bottom plate. Compound was diluted by the addition of DMEM media supplemented with 10% characterized fetal bovine serum. Diluted compound was transferred to a 96-well black clear bottom plate. Three thousand osteoclast precursors (Lonza, Walkersville, Md.) were added per well in growth medium containing Receptor Activator of Nuclear Factor Kappa-beta ligand (RANKL) and M-CSF. […] At the end of the incubation period, 50 μL of supernatant from each well was transferred to a clear 96-well plate. Tartrate-resistant acid phosphatase activity in the supernatant samples was determined using an acid phosphatase assay kit (Sigma, St. Louis, Mo.). Absorbance was measured at 550 nm using a plate reader. […] The Inhibition activity against osteoclast differentiation for each compound at 1 μM treatment in duplicate was measured.

[2] = test system: Kasumi-1 human acute myeloid leukemia cell with c-KIT N822K activating mutation; test: Kasumi-1 cell proliferation assay (CellTiter-96); assay type: cell-based; conditions: Cytotoxicity, Kasumi-1 cells, 72 hours
Summary of the method: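 Kasumi-1 cells, seeded at 64000 cells/well and incubated overnight at 37 °C, were exposed to increasing compound concentrations for 72 h. Viability was measured by CellTiter96 AQueous One reagent (4 h) and absorbance at 490 nm.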

[3] = test system: CSF-1-dependent M-NFS-60 mouse myeloid leukemia cell; test: M-NFS-60 cell proliferation assay (CellTiter-96); assay type: cell-based; conditions: Cytotoxicity, M-NFS-60 cells, 72 hours
Summary of the method: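 CSF-1-dependent M-NFS-60 cells seeded at 2000 cells/well, settled overnight at 37 °C, 5% CO2, then exposed to increasing compound concentrations for 72 h. Viability read by CellTiter 96 AQueous One reagent (4 h) at 490 nm absorbance.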

FLT3 kinase = FLT3 kinase (Homo sapiens (Human), UniProt P36888); test: FLT3 kinase assay (radiometric); assay type: biochemical; conditions: bound
Summary of the method: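 Recombinant FLT3 (5 ng) phosphorylating poly(Glu4:Tyr1) (2 μg) with 10 μM ATP plus [^33P]-ATP in MOPS pH 7.0 buffer, 4% DMSO final, 60 min at 30° C. Reaction stopped with phosphoric acid, filter-captured and scintillation-counted; IC50 derived from dose-response.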

c-KIT kinase = c-KIT kinase (Homo sapiens (Human), UniProt P10721); test: c-KIT kinase assay (radiometric); assay type: biochemical
Summary of the method: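 Recombinant c-Kit (20 ng) with 2 μg Poly-(Glu4:Tyr1) in MOPS pH 7.0 buffer with MgCl2/MnCl2, 10 μM ATP plus [^33P]-ATP, 4% DMSO final, 60 min at 30° C. Stopped with phosphoric acid, filter-captured and scintillation counted; IC50 from curve fit.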

[4] = test system: THP-1 human acute monocytic leukemia cell harboring NRAS G12D mutation; test: THP-1 cell proliferation assay (counter screen, CellTiter-96); assay type: cell-based; conditions: Cytotoxicity, THP-1 cells (counter screen), 72 hours
Summary of the method: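 THP-1 cells, RTK-independent owing to NRAS G12D, seeded at 5000/well, incubated overnight at 37 °C/5% CO2, then exposed to increasing compound concentrations for 72 h. CellTiter96 AQueous One reagent added for 4 h; viability from absorbance at 490 nm.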

CSF-1R kinase = CSF-1R kinase (Homo sapiens (Human), UniProt P07333); test: CSF-1R kinase assay (AlphaScreen); assay type: biochemical; conditions: class symbol
Method: Inhibition of CSF-1R kinase activity by a test compound disclosed herein was estimated by AlphaScreen (PerkinElmer). […] Reactions were incubated at 30° C. for 45 min and stopped by adding 5 μL of 50 mM EDTA. Analysis of resulting product using an AlphaScreen kit, and counted with Enspire Alpha (PerkinElmer). […] The IC50 values of quinoxaline compounds of this invention against CSF-1R kinase were determined using the GraphPad Prism 5 software.

[5] = test system: MV4-11 human acute myeloid leukemia cell with FLT3-ITD mutation; test: MV4-11 cell proliferation assay (CellTiter-96); assay type: cell-based; conditions: Cytotoxicity, MV4-11 cells, 72 hours
Summary of the method: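 MV4-11 cells (FLT3-ITD, FLT3-dependent growth) seeded at 6500 cells/well, incubated overnight at 37° C., 5% CO2, then exposed to increasing compound concentrations for 72 hours. Viability read by CellTiter96 AQueous One reagent (4 hours), absorbance at 490 nm.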

FLT3 kinase, sequence (P36888 27-993): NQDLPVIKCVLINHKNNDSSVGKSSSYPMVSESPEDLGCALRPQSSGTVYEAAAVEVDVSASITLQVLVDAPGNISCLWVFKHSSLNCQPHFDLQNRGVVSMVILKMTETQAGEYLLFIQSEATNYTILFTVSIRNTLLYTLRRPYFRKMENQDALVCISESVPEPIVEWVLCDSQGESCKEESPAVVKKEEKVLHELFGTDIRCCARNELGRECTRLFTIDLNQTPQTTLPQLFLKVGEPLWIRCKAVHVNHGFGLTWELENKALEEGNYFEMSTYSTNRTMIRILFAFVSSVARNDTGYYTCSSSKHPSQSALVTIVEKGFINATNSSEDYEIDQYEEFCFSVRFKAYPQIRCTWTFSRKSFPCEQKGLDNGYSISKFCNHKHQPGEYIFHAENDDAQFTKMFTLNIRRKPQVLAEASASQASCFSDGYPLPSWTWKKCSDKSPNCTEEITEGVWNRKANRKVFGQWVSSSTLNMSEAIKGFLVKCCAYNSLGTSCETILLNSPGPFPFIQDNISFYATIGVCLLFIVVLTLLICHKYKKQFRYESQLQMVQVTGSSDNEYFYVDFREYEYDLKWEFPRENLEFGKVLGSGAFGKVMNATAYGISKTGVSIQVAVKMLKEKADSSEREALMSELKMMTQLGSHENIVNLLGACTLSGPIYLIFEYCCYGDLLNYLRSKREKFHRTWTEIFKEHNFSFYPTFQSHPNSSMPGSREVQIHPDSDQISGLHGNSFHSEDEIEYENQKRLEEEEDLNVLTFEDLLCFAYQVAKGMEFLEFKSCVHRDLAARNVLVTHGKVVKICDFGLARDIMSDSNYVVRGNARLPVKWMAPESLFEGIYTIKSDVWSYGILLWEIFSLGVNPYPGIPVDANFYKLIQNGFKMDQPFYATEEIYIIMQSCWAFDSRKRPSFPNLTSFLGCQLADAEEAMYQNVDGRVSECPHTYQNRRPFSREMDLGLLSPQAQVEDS
CSF-1R kinase, sequence (P07333 20-972): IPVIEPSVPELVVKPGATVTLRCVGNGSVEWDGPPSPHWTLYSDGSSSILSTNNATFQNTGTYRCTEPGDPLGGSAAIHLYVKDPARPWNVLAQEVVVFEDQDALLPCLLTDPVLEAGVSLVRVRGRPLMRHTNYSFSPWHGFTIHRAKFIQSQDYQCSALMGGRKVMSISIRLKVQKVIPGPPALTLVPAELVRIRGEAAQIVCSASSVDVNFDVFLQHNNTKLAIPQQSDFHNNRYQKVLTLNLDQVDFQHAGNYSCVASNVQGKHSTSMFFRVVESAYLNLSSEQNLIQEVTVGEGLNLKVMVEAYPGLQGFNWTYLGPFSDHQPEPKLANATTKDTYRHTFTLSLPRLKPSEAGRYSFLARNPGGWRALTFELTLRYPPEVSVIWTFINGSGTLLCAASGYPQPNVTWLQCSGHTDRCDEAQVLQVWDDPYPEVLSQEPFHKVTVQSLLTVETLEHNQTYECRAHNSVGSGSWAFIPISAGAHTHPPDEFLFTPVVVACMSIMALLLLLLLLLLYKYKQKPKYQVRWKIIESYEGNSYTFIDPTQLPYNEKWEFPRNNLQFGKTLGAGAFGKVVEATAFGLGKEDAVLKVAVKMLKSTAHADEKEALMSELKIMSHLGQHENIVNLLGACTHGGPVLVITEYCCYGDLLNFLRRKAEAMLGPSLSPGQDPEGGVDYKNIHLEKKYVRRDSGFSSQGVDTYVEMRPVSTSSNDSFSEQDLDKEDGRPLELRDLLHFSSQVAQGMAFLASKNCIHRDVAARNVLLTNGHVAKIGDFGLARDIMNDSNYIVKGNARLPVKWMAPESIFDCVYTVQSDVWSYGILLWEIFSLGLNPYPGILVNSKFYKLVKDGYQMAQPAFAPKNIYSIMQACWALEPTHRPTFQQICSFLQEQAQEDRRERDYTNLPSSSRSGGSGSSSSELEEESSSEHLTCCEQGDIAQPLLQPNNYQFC
PDGFRβ kinase, sequence (P09619 33-1106): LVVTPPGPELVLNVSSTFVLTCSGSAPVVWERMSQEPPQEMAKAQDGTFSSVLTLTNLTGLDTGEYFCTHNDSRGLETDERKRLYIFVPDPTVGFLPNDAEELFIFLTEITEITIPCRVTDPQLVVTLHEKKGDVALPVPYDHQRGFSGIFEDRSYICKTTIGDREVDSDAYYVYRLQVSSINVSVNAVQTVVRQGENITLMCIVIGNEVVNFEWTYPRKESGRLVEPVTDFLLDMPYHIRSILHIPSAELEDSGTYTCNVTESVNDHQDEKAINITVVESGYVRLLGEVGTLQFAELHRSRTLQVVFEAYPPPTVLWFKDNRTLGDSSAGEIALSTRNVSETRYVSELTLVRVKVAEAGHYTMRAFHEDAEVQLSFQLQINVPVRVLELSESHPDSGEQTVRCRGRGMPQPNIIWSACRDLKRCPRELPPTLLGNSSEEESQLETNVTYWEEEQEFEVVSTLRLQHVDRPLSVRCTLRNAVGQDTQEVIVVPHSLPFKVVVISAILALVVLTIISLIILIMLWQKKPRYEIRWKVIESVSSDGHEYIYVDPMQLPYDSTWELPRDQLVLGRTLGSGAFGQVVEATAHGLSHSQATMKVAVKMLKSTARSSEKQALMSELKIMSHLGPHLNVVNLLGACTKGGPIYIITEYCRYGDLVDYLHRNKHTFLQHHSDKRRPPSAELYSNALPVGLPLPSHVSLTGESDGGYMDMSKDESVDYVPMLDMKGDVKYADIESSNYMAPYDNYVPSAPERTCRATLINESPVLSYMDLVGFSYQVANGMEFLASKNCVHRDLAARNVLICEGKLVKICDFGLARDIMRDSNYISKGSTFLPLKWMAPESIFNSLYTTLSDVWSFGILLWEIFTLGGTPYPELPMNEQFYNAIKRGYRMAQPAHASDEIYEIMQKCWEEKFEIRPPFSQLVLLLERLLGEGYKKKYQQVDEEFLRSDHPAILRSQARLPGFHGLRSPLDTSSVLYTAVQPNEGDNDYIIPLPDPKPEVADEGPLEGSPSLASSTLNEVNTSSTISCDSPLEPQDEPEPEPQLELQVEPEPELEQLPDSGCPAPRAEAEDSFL
c-KIT kinase, sequence (P10721 26-976): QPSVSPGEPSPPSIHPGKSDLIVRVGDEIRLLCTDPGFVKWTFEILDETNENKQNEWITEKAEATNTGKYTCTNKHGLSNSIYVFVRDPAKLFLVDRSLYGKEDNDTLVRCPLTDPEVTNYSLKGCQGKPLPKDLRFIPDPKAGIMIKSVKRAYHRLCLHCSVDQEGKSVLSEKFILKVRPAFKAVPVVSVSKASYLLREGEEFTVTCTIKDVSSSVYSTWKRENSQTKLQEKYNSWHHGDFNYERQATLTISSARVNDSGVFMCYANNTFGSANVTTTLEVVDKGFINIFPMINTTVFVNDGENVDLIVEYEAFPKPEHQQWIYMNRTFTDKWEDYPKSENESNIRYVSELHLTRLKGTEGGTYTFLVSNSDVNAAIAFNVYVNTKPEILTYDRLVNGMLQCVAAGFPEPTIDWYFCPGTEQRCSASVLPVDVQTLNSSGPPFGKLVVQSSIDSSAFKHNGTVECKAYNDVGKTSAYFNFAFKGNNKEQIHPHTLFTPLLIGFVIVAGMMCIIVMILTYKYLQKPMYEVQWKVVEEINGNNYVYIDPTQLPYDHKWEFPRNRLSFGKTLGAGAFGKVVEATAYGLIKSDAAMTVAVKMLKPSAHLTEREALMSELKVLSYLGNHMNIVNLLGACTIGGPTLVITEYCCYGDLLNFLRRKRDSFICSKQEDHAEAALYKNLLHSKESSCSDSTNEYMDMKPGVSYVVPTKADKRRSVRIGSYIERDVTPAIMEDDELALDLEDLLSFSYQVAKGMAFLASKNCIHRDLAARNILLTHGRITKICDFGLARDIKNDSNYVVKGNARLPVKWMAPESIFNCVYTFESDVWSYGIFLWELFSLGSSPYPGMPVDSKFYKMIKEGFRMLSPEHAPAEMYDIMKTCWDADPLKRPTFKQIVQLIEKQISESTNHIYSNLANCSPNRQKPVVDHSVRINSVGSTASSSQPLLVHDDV

Structure (SMILES) | IC50 (PDGFRβ kinase; bound) [µM] | IC50 (FLT3 kinase) [µM] | IC50 (c-KIT kinase; class symbol) [µM] | IC50 (CSF-1R kinase) [µM] | IC50 (c-KIT kinase; bound) [µM] | IC50 (PDGFRβ kinase; class symbol) [µM] | inhibition at 1 µM [1] [%] | IC50 [2] [µM] | IC50 [3] [µM] | IC50 [4] [µM] | IC50 [5] [µM]
COc1cc(Nc2ccc3ncc(N4CCOCC4)nc3c2C#N)ccc1OCc1ccc(F)c(F)c1 [Example 99, 6-((4-((3,4-difluorobenzyl)oxy)-3-methoxyphenyl)amino)-3-morpholinoquinoxaline-5-carbonitrile] | > 1 | > 1 | – | < 0.1 | > 1 | – | > 50 | > 10 | < 0.3 | > 10 | > 10
COc1cc(Nc2ccc3ncc(N4CCOCC4)nc3c2C#N)ccc1OCc1ccc2c(c1)OCO2 [Example 81, 6-((4-(benzo[d][1,3]dioxol-5-ylmethoxy)-3-methoxyphenyl)amino)-3-morpholinoquinoxaline-5-carbonitrile] | > 1 | > 1 | 0.3 to 1 | < 0.1 | – | – | > 50 | > 10 | < 0.3 | > 10 | > 10
COc1cc(Nc2ccc3ncc(N4CCOCC4)nc3c2C#N)ccc1OCc1ccc(F)cc1 [Example 40, 6-((4-((4-fluorobenzyl)oxy)-3-methoxyphenyl)amino)-3-morpholinoquinoxaline-5-carbonitrile] | > 1 | > 1 | – | < 0.1 | > 1 | – | > 50 | > 10 | < 0.3 | > 10 | > 10
COc1ccc(COc2ccc(Nc3ccc4ncc(NC(C)C)nc4c3C#N)cc2OC)cc1 [Example 17, 3-(isopropylamino)-6-((3-methoxy-4-((4-methoxybenzyl)oxy)phenyl)amino)quinoxaline-5-carbonitrile] | > 1 | > 1 | < 0.1 | < 0.1 | – | – | > 50 | 0.3 to 1 | < 0.3 | > 10 | 1 to 10
C=C(C)c1cnc2ccc(Nc3ccc(OCc4ccc(OC)cc4)c(OC)c3)c(C#N)c2n1 [Example 108, 6-((3-methoxy-4-((4-methoxybenzyl)oxy)phenyl)amino)-3-(prop-1-en-2-yl)quinoxaline-5-carbonitrile] | > 1 | > 1 | – | < 0.1 | > 1 | – | > 50 | > 10 | 1 to 10 | > 10 | > 10
COc1ccc(COc2ccc(Oc3ccc4ncc(N5CCOCC5)nc4c3C#N)cc2OC)cc1 [Example 27, 6-(3-methoxy-4-((4-methoxybenzyl)oxy)phenoxy)-3-morpholinoquinoxaline-5-carbonitrile] | > 1 | > 1 | 0.1 to 0.3 | < 0.1 | – | – | > 50 | < 0.3 | < 0.3 | > 10 | > 10

Now from value to compound, other results behind:

IC50 (PDGFRβ kinase; bound) [µM] | IC50 (FLT3 kinase) [µM] | IC50 (c-KIT kinase; class symbol) [µM] | IC50 (CSF-1R kinase) [µM] | IC50 (c-KIT kinase; bound) [µM] | IC50 (PDGFRβ kinase; class symbol) [µM] | Structure (SMILES) | inhibition at 1 µM [1] [%] | IC50 [2] [µM] | IC50 [3] [µM] | IC50 [4] [µM] | IC50 [5] [µM]
> 1 | > 1 | 0.1 to 0.3 | < 0.1 | – | – | COc1cc(Nc2ccc3ncc(N4CCOCC4)nc3c2C#N)ccc1OCc1ccc(C(F)F)nc1 [Example 111, 6-((4-((6-(difluoromethyl)pyridin-3-yl)methoxy)-3-methoxyphenyl)amino)-3-morpholinoquinoxaline-5-carbonitrile] | > 50 | 0.3 to 1 | < 0.3 | > 10 | 1 to 10
> 1 | > 1 | < 0.1 | < 0.1 | – | – | COc1ccc(COc2ccc(Nc3ccc4ncc(N5CCNCC5)nc4c3C#N)cc2OC)cc1 [Example 90, 6-((3-methoxy-4-((4-methoxybenzyl)oxy)phenyl)amino)-3-(piperazin-1-yl)quinoxaline-5-carbonitrile] | > 50 | 0.3 to 1 | < 0.3 | > 10 | > 10
> 1 | > 1 | < 0.1 | < 0.1 | – | – | COc1cc(Nc2ccc3ncc(N4CCNCC4)nc3c2C#N)ccc1OCc1ccc(C)nc1 [Example 67, 6-((3-methoxy-4-((6-methylpyridin-3-yl)methoxy)phenyl)amino)-3-(piperazin-1-yl)quinoxaline-5-carbonitrile] | > 50 | 1 to 10 | < 0.3 | 1 to 10 | 1 to 10
> 1 | > 1 | 0.1 to 0.3 | < 0.1 | – | – | COc1ccc(COc2ccc(Nc3ccc4ncc(N5CCC(N6CCOCC6)CC5)nc4c3C#N)cc2OC)cn1 [Example 102, 6-((3-methoxy-4-((6-methoxypyridin-3-yl)methoxy)phenyl)amino)-3-(4-morpholinopiperidin-1-yl)quinoxaline-5-carbonitrile] | > 50 | < 0.3 | < 0.3 | > 10 | > 10
> 1 | > 1 | < 0.1 | < 0.1 | – | – | CCOc1ccc(COc2ccc(Nc3ccc4ncc(N5CCOCC5)nc4c3C#N)cc2OC)cn1 [Example 112, 6-((4-((6-ethoxypyridin-3-yl)methoxy)-3-methoxyphenyl)amino)-3-morpholinoquinoxaline-5-carbonitrile] | > 50 | < 0.3 | < 0.3 | > 10 | 1 to 10
> 1 | > 1 | 0.1 to 0.3 | < 0.1 | – | – | COCCN1CCN(c2cnc3ccc(Nc4ccc(OCc5ccc(OC)nc5)c(OC)c4)c(C#N)c3n2)CC1 [Example 97, 6-((3-methoxy-4-((6-methoxypyridin-3-yl)methoxy)phenyl)amino)-3-(4-(2-methoxyethyl)piperazin-1-yl)quinoxaline-5-carbonitrile] | > 50 | 0.3 to 1 | < 0.3 | > 10 | 1 to 10
> 1 | > 1 | 0.1 to 0.3 | < 0.1 | – | – | COc1ccc(COc2ccc(Nc3ccc4ncc(N5CCC5)nc4c3C#N)cc2OC)cn1 [Example 86, 3-(azetidin-1-yl)-6-((3-methoxy-4-((6-methoxpyridin-3-yl)methoxy)phenyl)amino)quinoxaline-5-carbonitrile] | > 50 | 1 to 10 | < 0.3 | > 10 | > 10
– | > 1 | < 0.1 | < 0.1 | – | 0.3 to 1 | COc1ccc(COc2ccc(Nc3ccc4ncc(N5CCN(CCO)CC5)nc4c3C#N)cc2OC)cc1 [Example 66, 3-(4-(2-hydroxyethyl)piperazin-1-yl)-6-((3-methoxy-4-((4-methoxybenzyl)oxy)phenyl)amino)quinoxaline-5-carbonitrile] | > 50 | < 0.3 | < 0.3 | > 10 | 1 to 10
